From the NIST ThermoML archive (doi:10.1016/j.jct.2007.02.004)
± gives the expanded uncertainty stated by the source.

Assays:
[1] = 293.15 K; 101.33 kPa; Liquid
[2] = refractive index (Na D-line) (dimensionless); conditions: 293.15 K; 101.33 kPa; Liquid; Standard Abbe refractometry
[3] = xn = mol fraction of the nth substance listed; conditions: 101 kPa, Liquid

For `CCOC(=O)OCC` [diethyl carbonate], the mass density [1] was 974.65 ± 0.28 kg/m3 and the refractive index [2] was 1.3845 ± 0.0007.

Compound `CCOC(=O)OCC` [diethyl carbonate] + CCCCCCO has a mass density ([3]; 293.15 K, x1 = 0.0502) of 825.96 ± 0.72 kg/m3, a mass density ([3]; 293.15 K, x1 = 0.1123) of 834.86 ± 0.7 kg/m3 and a mass density ([3]; 293.15 K, x1 = 0.1499) of 840.29 ± 0.68 kg/m3. The mass density ([3]; 293.15 K, x1 = 0.2103) was 849.1 ± 0.65 kg/m3, the mass density ([3]; 293.15 K, x1 = 0.2508) was 855.05 ± 0.64 kg/m3 and the mass density ([3]; 293.15 K, x1 = 0.3121) was 864.19 ± 0.61 kg/m3. For the same compound, the mass density ([3]; 293.15 K, x1 = 0.3576) was 871.02 ± 0.59 kg/m3, the mass density ([3]; 293.15 K, x1 = 0.4113) was 879.15 ± 0.57 kg/m3 and the mass density ([3]; 293.15 K, x1 = 0.4632) was 887.08 ± 0.55 kg/m3. For the same compound, the mass density ([3]; 293.15 K, x1 = 0.5111) was 894.51 ± 0.53 kg/m3, the mass density ([3]; 293.15 K, x1 = 0.552) was 900.88 ± 0.51 kg/m3 and the mass density ([3]; 293.15 K, x1 = 0.6008) was 908.59 ± 0.48 kg/m3. The mass density ([3]; 293.15 K, x1 = 0.6498) was 916.39 ± 0.46 kg/m3, the mass density ([3]; 293.15 K, x1 = 0.7108) was 926.19 ± 0.43 kg/m3 and the mass density ([3]; 293.15 K, x1 = 0.7554) was 933.45 ± 0.41 kg/m3. It also gave a mass density ([3]; 293.15 K, x1 = 0.8112) of 942.65 ± 0.38 kg/m3, a mass density ([3]; 293.15 K, x1 = 0.8501) of 949.13 ± 0.37 kg/m3 and a mass density ([3]; 293.15 K, x1 = 0.9002) of 957.5 ± 0.34 kg/m3. The mass density ([3]; 293.15 K, x1 = 0.9555) was 966.89 ± 0.31 kg/m3, the mass density ([3]; 303.15 K, x1 = 0.0502) was 818.55 ± 0.74 kg/m3 and the mass density ([3]; 303.15 K, x1 = 0.1123) was 827.16 ± 0.71 kg/m3. For the same compound, the mass density ([3]; 303.15 K, x1 = 0.1499) was 832.48 ± 0.7 kg/m3, the mass density ([3]; 303.15 K, x1 = 0.2103) was 841.04 ± 0.67 kg/m3 and the mass density ([3]; 303.15 K, x1 = 0.2508) was 846.79 ± 0.65 kg/m3. For the same compound, the mass density ([3]; 303.15 K, x1 = 0.3121) was 855.69 ± 0.63 kg/m3, the mass density ([3]; 303.15 K, x1 = 0.3576) was 862.23 ± 0.61 kg/m3 and the mass density ([3]; 303.15 K, x1 = 0.4113) was 870.21 ± 0.59 kg/m3. For the same compound, the mass density ([3]; 303.15 K, x1 = 0.4632) was 877.88 ± 0.57 kg/m3, the mass density ([3]; 303.15 K, x1 = 0.5111) was 885.13 ± 0.55 kg/m3 and the mass density ([3]; 303.15 K, x1 = 0.552) was 891.35 ± 0.53 kg/m3. It also gave a mass density ([3]; 303.15 K, x1 = 0.6008) of 898.87 ± 0.51 kg/m3, a mass density ([3]; 303.15 K, x1 = 0.6498) of 906.42 ± 0.48 kg/m3 and a mass density ([3]; 303.15 K, x1 = 0.7108) of 915.93 ± 0.45 kg/m3. It also gave a mass density ([3]; 303.15 K, x1 = 0.7554) of 923.08 ± 0.43 kg/m3, a mass density ([3]; 303.15 K, x1 = 0.8112) of 932.03 ± 0.41 kg/m3 and a mass density ([3]; 303.15 K, x1 = 0.8501) of 938.29 ± 0.39 kg/m3. The mass density ([3]; 303.15 K, x1 = 0.9002) was 946.57 ± 0.37 kg/m3, the mass density ([3]; 303.15 K, x1 = 0.9555) was 955.77 ± 0.34 kg/m3 and the mass density ([3]; 313.15 K, x1 = 0.0502) was 811.04 ± 0.75 kg/m3. It also gave a mass density ([3]; 313.15 K, x1 = 0.1123) of 819.37 ± 0.73 kg/m3, a mass density ([3]; 313.15 K, x1 = 0.1499) of 824.54 ± 0.71 kg/m3 and a mass density ([3]; 313.15 K, x1 = 0.2103) of 832.78 ± 0.69 kg/m3. For the same compound, the mass density ([3]; 313.15 K, x1 = 0.2508) was 838.35 ± 0.67 kg/m3, the mass density ([3]; 313.15 K, x1 = 0.3121) was 846.97 ± 0.65 kg/m3 and the mass density ([3]; 313.15 K, x1 = 0.3576) was 853.42 ± 0.63 kg/m3. It also gave a mass density ([3]; 313.15 K, x1 = 0.4113) of 861.12 ± 0.61 kg/m3, a mass density ([3]; 313.15 K, x1 = 0.4632) of 868.59 ± 0.59 kg/m3 and a mass density ([3]; 313.15 K, x1 = 0.5111) of 875.61 ± 0.57 kg/m3. The mass density ([3]; 313.15 K, x1 = 0.552) was 881.55 ± 0.55 kg/m3, the mass density ([3]; 313.15 K, x1 = 0.6008) was 888.91 ± 0.53 kg/m3 and the mass density ([3]; 313.15 K, x1 = 0.6498) was 896.35 ± 0.5 kg/m3. For the same compound, the mass density ([3]; 313.15 K, x1 = 0.7108) was 905.65 ± 0.48 kg/m3, the mass density ([3]; 313.15 K, x1 = 0.7554) was 912.55 ± 0.46 kg/m3 and the mass density ([3]; 313.15 K, x1 = 0.8112) was 921.16 ± 0.43 kg/m3. It also gave a mass density ([3]; 313.15 K, x1 = 0.8501) of 927.49 ± 0.41 kg/m3, a mass density ([3]; 313.15 K, x1 = 0.9002) of 935.57 ± 0.39 kg/m3 and a mass density ([3]; 313.15 K, x1 = 0.9555) of 944.49 ± 0.36 kg/m3. The mass density ([3]; 323.15 K, x1 = 0.0502) was 803.29 ± 0.77 kg/m3, the mass density ([3]; 323.15 K, x1 = 0.1123) was 811.3 ± 0.74 kg/m3 and the mass density ([3]; 323.15 K, x1 = 0.1499) was 816.2 ± 0.73 kg/m3. The mass density ([3]; 323.15 K, x1 = 0.2103) was 824.2 ± 0.71 kg/m3, the mass density ([3]; 323.15 K, x1 = 0.2508) was 829.57 ± 0.69 kg/m3 and the mass density ([3]; 323.15 K, x1 = 0.3121) was 837.88 ± 0.67 kg/m3. For the same compound, the mass density ([3]; 323.15 K, x1 = 0.3576) was 844.05 ± 0.65 kg/m3, the mass density ([3]; 323.15 K, x1 = 0.4113) was 851.48 ± 0.63 kg/m3 and the mass density ([3]; 323.15 K, x1 = 0.4632) was 858.73 ± 0.61 kg/m3. For the same compound, the mass density ([3]; 323.15 K, x1 = 0.5111) was 865.59 ± 0.59 kg/m3, the mass density ([3]; 323.15 K, x1 = 0.552) was 871.51 ± 0.57 kg/m3 and the mass density ([3]; 323.15 K, x1 = 0.6008) was 878.65 ± 0.55 kg/m3. It also gave a mass density ([3]; 323.15 K, x1 = 0.6498) of 885.85 ± 0.53 kg/m3, a mass density ([3]; 323.15 K, x1 = 0.7108) of 894.96 ± 0.5 kg/m3 and a mass density ([3]; 323.15 K, x1 = 0.7554) of 901.77 ± 0.48 kg/m3. The mass density ([3]; 323.15 K, x1 = 0.8112) was 910.41 ± 0.46 kg/m3, the mass density ([3]; 323.15 K, x1 = 0.8501) was 916.42 ± 0.44 kg/m3 and the mass density ([3]; 323.15 K, x1 = 0.9002) was 924.3 ± 0.42 kg/m3. It also gave a mass density ([3]; 323.15 K, x1 = 0.9555) of 933.24 ± 0.39 kg/m3.

In the case of `CCCCCCO` [hexan-1-ol], the mass density [1] is reported as 818.84 ± 0.97 kg/m3 and the refractive index [2] is reported as 1.4178 ± 0.0008.
